Results published in PubChem BioAssay AID726 (The Scripps Research Institute Molecular Screening Center, 2007).
Activity calls are given as the source filed them.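 Rule for the calls: active = EC50 at or below 10 µM, fitted or read by hand from inhibition at single concentrations; inactive = EC50 above 10 µM.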

The compounds below were run against 5-hydroxytryptamine receptor 1E (Homo sapiens) (UniProt P28566) (assay: activation of human 5HT1E serotonin receptor – cell-based, dose response (AID 726)). Details: CHO 5-HT1E/Ga15 NFAT-bla, FRET reporter.
Sequence of 5-hydroxytryptamine receptor 1E (Homo sapiens) (P28566 whole entry, looked up): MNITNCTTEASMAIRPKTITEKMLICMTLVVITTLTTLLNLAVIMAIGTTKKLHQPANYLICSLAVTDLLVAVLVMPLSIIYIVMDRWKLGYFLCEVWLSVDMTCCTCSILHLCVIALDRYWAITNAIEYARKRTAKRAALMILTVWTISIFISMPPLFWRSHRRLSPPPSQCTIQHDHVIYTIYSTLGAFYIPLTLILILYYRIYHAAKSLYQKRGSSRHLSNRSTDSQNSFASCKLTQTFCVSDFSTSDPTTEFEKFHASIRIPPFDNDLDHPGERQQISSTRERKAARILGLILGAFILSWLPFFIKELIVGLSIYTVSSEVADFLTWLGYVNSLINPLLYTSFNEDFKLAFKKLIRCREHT
`Cc1cccc(NC(=O)C2CCCN(C(=O)Nc3ccccc3)C2)c1C` (centres undefined) was tested, and the EC50 was > 50000 nM (inactive). In the case of `CC(CCc1ccccc1)NC(=O)CSc1nc(N)cc(N)n1` (centres undefined), the EC50 is reported as > 50000 nM (inactive). `Cc1[nH]c2c(C(F)(F)F)cccc2c1CCN` was tested, and the EC50 was 817 nM. `CN1CCN(/C(=N\O)c2nonc2N)CC1` gave an EC50 of 1170 nM. Compound `NCCc1c[nH]c2ccc(F)cc12` has an EC50 of 484 nM. In the case of `CCOC(=O)C1CCN(C(=O)Cc2c(C(=O)O)n(C)c3ccccc23)CC1`, the EC50 is reported as > 50000 nM (inactive). Work on `C[N+]1=C2CCCCCN2C(O)(c2ccccc2)C1` (centres undefined) yielded an EC50 of 1330 nM. `CCOC(=O)c1c(C)nc(-c2ccccc2)nc1NC(=O)CC` was tested, and the EC50 was > 50000 nM (inactive). With `CSc1nc2ccc(NC(=O)C3CCCO3)cc2s1` (centres undefined) the EC50 was > 50000 nM (inactive). Work on `CCN1CC=C(c2c[nH]c3ccccc23)CC1` yielded an EC50 of 23.9 nM. `COc1ccc(CN2CCN(c3ccccc3F)CC2)c(OC)c1` was tested, and the EC50 was > 50000 nM (inactive). With `CCc1nn(C(C)C(=O)NCCN2CCN(c3cccc(C)c3C)CC2)c(=O)c2cc3occc3n12` (centres undefined) the EC50 was 2320 nM. For `O=C(COC(=O)CCC1CCCC1)Nc1ccc(Cl)cn1`, the EC50 was > 50000 nM (inactive). `COC(=O)CC(=O)Cc1nc(N)nc(Nc2ccc(C)c(C)c2)n1` was tested, and the EC50 was > 50000 nM (inactive). Work on `CC[C@@H](CO)NC(=O)[C@@H]1C=C2c3cccc4c3c(cn4C)C[C@H]2N(C)C1` yielded an EC50 of 37.5 nM. In the case of `CC(=O)Nc1ccc(S(=O)(=O)N(C)c2ccc(O)cc2)cc1`, the EC50 is reported as > 50000 nM (inactive). For `CN1CCN2c3ccccc3Cc3ccccc3C2C1` (centres undefined), the EC50 was 37.8 nM. In the case of `Cc1c(CN2CCN(c3cccc(C(F)(F)F)c3)CC2)c(=O)n(-c2ccccc2)n1C`, the EC50 is reported as 1840 nM. Work on `O=C(O)C1CCCCC1C(=O)NCCc1c[nH]c2ccccc12` (centres undefined) yielded an EC50 of 765 nM. In the case of `CC1CN(c2nnnn2-c2ccccc2)CC(C)O1` (centres undefined), the EC50 is reported as > 50000 nM (inactive). Compound `CN(C)CCOC(=O)c1cn(Cc2ccccc2)c2ccccc12` has an EC50 of 493 nM. Work on `c1ccc(N2CCN(Cc3cn4cccnc4n3)CC2)cc1` yielded an EC50 of 1070 nM. `Cc1cc(C(C)(C)C)cc(C)c1CC1=NCCN1` was tested, and the EC50 was 87 nM. Compound `CN1CC=C(c2c[nH]c3ccccc23)CC1` has an EC50 of 6.78 nM. With `CCOC(=O)c1oc2ccccc2c1NC(=O)c1cc(OC)cc(OC)c1` the EC50 was > 50000 nM (inactive). `Cc1[nH]c2ccccc2c1C1=CCNCC1` showed an EC50 of 194 nM. In the case of `Cc1cccc(N2CCN(C(=O)Cc3c(C(=O)O)[nH]c4ccc(Cl)cc34)CC2)c1C`, the EC50 is reported as > 50000 nM (inactive). For `CCc1ccc(NC(=O)Cn2c(SC)nc3ccccc32)cc1`, the EC50 was > 50000 nM (inactive). With `CNCCc1c[nH]c2ccccc12` the EC50 was 105 nM. With `CCOC(=O)C1CCN(C(c2cccnc2)c2c(NC(=O)c3ccco3)sc(C)c2C)CC1` (centres undefined) the EC50 was > 50000 nM (inactive). For `COc1cc(CN2CCN(c3cccc(C)c3C)CC2)cc(OC)c1O`, the EC50 was > 50000 nM (inactive). In the case of `CCOC(=O)c1cc2ccc(OC(=O)c3ccco3)cc2oc1=O`, the EC50 is reported as 7500 nM. For `Cc1noc(C)c1COc1ccc(C(=O)OC(C)C(=O)Nc2ccc(N3CCOCC3)cc2)cc1` (centres undefined), the EC50 was > 50000 nM (inactive). With `COc1ccc(N(CC(=O)NC2CCCC2)C(=O)Cn2nnc(-c3ccc(C)cc3)n2)cc1OC` the EC50 was > 50000 nM (inactive). `Cc1[nH]c2c(Cl)cccc2c1CCN` was tested, and the EC50 was 677 nM. For `CCCCN(CC)Cc1ccc(CNC(=O)Nc2ccc(OC)cc2OC)o1`, the EC50 was 1830 nM. Compound `Cc1cc(C(C)(C)C)c(O)c(C)c1CC1=NCCN1` has an EC50 of 99 nM. With `O=C(Nc1cccc(-c2cn3ccsc3n2)c1)c1ccccc1` the EC50 was > 50000 nM (inactive). `CN(C)CCCn1c(NC(=O)C2CCCCC2)nc2ccccc21` was tested, and the EC50 was 469 nM. In the case of `CCOC(=O)C1=C(C)NC(=O)NC1c1ccc(OCC(=O)Nc2ccccc2)c(OC)c1` (centres undefined), the EC50 is reported as > 50000 nM (inactive). For `Cn1cc(/C(Cc2ccccc2)=N\O)c2ccccc21`, the EC50 was > 50000 nM (inactive). Work on `C1=C(c2c[nH]c3ccccc23)CCNC1` yielded an EC50 of 15.7 nM. For `CCN(CC)c1nc(N2CCOCC2)c(C#N)c2c1CN(C)CC2`, the EC50 was 1750 nM. For `O=C(NCc1ccccc1)NC1(C(=O)N2CCCC2)CCCCC1`, the EC50 was > 50000 nM (inactive). In the case of `CCCCc1ccc2[nH]cc(CCN)c2c1`, the EC50 is reported as 11.3 nM. Work on `CCCCN(C)CCCNC(=O)Cn1c(=O)sc2ccccc21` yielded an EC50 of 3500 nM. `Cn1c(-c2ccccc2)cnc1SCc1nc2ccccc2c(=O)[nH]1` was tested, and the EC50 was > 50000 nM (inactive). `c1ccc2sc(C3CCCNC3)nc2c1` (centres undefined) was tested, and the EC50 was 186 nM. `O=S(=O)(c1cccc(Cl)c1)N1CCCC1` was tested, and the EC50 was > 50000 nM (inactive).
